Laboratory results reported in patent publication US4443603A, “Piperazine derivatives, of aromatic acids” (Kowa Company Limited, priority 1981, dated 1984).

Experiments:
Assay type in all cases: biochemical
Chymotrypsin = Chymotrypsin (Bos taurus, UniProt P00766); assay: Chymotrypsin inhibitory effects (Hestrin color method, acetyl-L-tyrosine ethyl ester substrate); details: pH 8.0, 10 min preincubation, 30 min at 37° C., ethyl ester of acetyl-L-tyrosine; read-out: 50% Inhibitory Concentration, Chymotrypsin
Method: Following the procedure of Muramatsu et al [The Journal of Biochemistry, 62, 408 (1967)], a mixture of 0.1 ml of a dimethylsulfoxide solution of each test compound, 0.1 ml of water and 0.1 ml of a buffer solution containing chymotrypsin in an amount of 10 μg/ml (a 0.1 mole trishydrochloric acid buffer solution, pH 8.0) was incubated for 10 minutes, combined with 0.1 ml of a buffer solution containing 25 millimoles of an ethyl ester of acetyl-L-tyrosine and then reacted with the ethyl ester at 37° C. for 30 minutes. The remaining substrate was caused to develop a color in accordance with the Hestrin method, and the amount was determined by measuring the absorbance at 530 nm. As a control compound, use was made of tosylphenylalanine chloromethyl ketone.

Trypsin = molecular target: T1, Trypsin (Bos taurus, UniProt P00760); assay: Trypsin inhibitory effects (Hestrin color method, tosylarginine methyl ester substrate); details: pH 8.0, 10 min preincubation, 30 min at 37° C., methyl ester of tosylarginine; read-out: 50% Inhibitory Concentration, Trypsin
T1 sequence (P00760 24-246): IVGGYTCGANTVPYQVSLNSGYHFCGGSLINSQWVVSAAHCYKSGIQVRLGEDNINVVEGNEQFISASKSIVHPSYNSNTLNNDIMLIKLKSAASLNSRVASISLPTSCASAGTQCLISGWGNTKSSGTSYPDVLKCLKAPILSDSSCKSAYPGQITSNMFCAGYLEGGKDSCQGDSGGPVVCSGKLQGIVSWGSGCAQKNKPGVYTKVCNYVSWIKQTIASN
Method: Following the procedure of Muramatsu et al [The Journal of Biochemistry, 58, 214 (1967)], a mixture of 0.1 ml of a dimethylsufoxide solution of each test compound, 0.1 ml of a buffer solution (obtained by dissolving 10 millimoles of calcium chloride in a 0.1 mole trishydrochloric acid buffer solution, pH 8.0) and 0.1 ml of a buffer solution containing trypsin in an amount of 2.5 μg/ml was incubated for 10 minutes, mixed with 0.2 ml of a buffer solution containing 25 millimoles of a methyl ester of tosylarginine and then reacted with the methyl ester at 37° C. for 30 minutes. The remaining substrate was caused to develop a color in accordance with the Hestrin method, and the amount was determined by measuring the absorbance at 530 nm.

Thrombin = Thrombin (Homo sapiens, UniProt P00734); assay: Thrombin inhibitory effects (Hestrin color method, tosylarginine methyl ester substrate); details: pH 7.4, 10 min preincubation, 30 min at 37° C., methyl ester of tosylarginine; read-out: 50% Inhibitory Concentration, Thrombin
Method: Following the procedure of Tamura et al [Biochim. Biophys. Acta, 484, 417 (1977)], a mixture of 0.1 ml of a dimethylsulfoxide solution of each test compound, 0.1 ml of a buffer solution (a 0.1 mole sodium phosphate buffer, pH 7.4) and 0.1 ml of a buffer solution containing thrombin in an amount of 37.5 units/ml was incubated for 10 minutes, mixed with 0.2 ml of a buffer solution containing 25 millimoles of a methyl ester of tosylarginine and then reacted with the methyl ester at 37° C. for 30 minutes. The remaining substrate was caused to develop a color in accordance with the Hestrin method, and the amount was determined by measuring the absorbance at 530 nm.

| Compound | IC50 (Chymotrypsin) | IC50 (Trypsin) | IC50 (Thrombin) |
| --- | --- | --- | --- |
| COc1ccc2[nH]c(C)c(CC(=O)Oc3ccc(C=CC(=O)N4CCN(CC(=O)N5CCCC5)CC4)cc3)c2c1 [Test Compound 10, 1-[4-(5-Methoxy-2-methylindole-3-acetyloxy)cynnamoyl]-4-(pyrrolidinocarbonylmethyl)piperazine] | 0.8 µM | 600 µM | 300 µM |
| COc1ccc2[nH]c(C)c(CC(=O)Oc3ccc(C(=O)OCCN4CCN(C)CC4)cc3)c2c1 [Test Compound 9, 4-{[2-(4-Methylpiperazino)ethyl]oxycarbonyl}phenyl 5-methoxy-2-methylindole-3-acetate] | 0.06 µM | 300 µM | 40 µM |
| O=C(OCCN1CCN(CC(=O)N2CCOCC2)CC1)c1ccc(OC(=O)C2CCCc3ccccc32)cc1 (stereo not shown) [Test Compound 3, 4-{[2-[4-(Morpholinocarbonylmethyl)piperazino]ethyl]oxycarbonyl}phenyl 1,2,3,4-tetrahydro-1-naphthoate] | 0.6 µM | 500 µM | 90 µM |
| COc1ccc2c(c1)c(CC(=O)Oc1ccc(C(=O)OCCN3CCN(CC(=O)N4CCCC4)CC3)cc1)c(C)n2C [Test Compound 2, 4-{[2-[4-(Pyrrolidinocarbonylmethyl)piperazino]ethyl]oxycarbonyl}phenyl 1,2-dimethyl-5-methoxyindole-3-acetate] | 0.07 µM | 500 µM | 900 µM |
| CN(C)C(=O)CN1CCN(CCOC(=O)c2ccc(OC(=O)Cc3cccc4ccccc34)cc2)CC1 [Test Compound 4, 4-{[2-[4-(Dimethylaminocarbonylmethyl)piperazino]ethyl]oxycarbonyl}phenyl 1-naphthylacetate] | 0.3 µM | > 1000 µM | 9 µM |
| O=C(Cc1cccc2ccccc12)Oc1ccc(C(=O)OCCN2CCN(CC(=O)N3CCCCC3)CC2)cc1 [Test Compound 5, 4-{[2-[4-(Piperidinocarbonylmethyl)piperazino]ethyl]oxycarbonyl}phenyl 1-naphtylacetate] | 0.3 µM | > 1000 µM | 9 µM |
| COc1ccc2[nH]cc(CC(=O)Oc3ccc(C(=O)OCCN4CCN(CC(=O)N5CCCC5)CC4)cc3)c2c1 [Test Compound 8, 4-{[2-[4-(Pyrrolidinocarbonylmethyl)piperazino]ethyl]oxycarbonyl}phenyl 5-methoxyindole-3-acetate] | 0.05 µM | > 1000 µM | 600 µM |
| Cc1ccc(S(=O)(=O)N[C@@H](Cc2ccccc2)C(=O)CCl)cc1 [TPCK, Tosylphenylalanine chloromethyl ketone, reference compound] | 500 µM |  |  |

Further lines, results first:

| IC50 (Chymotrypsin) | IC50 (Trypsin) | IC50 (Thrombin) | Compound |
| --- | --- | --- | --- |
| 0.6 µM | 200 µM | 70 µM | COc1ccc2[nH]c(C)c(CC(=O)Oc3ccc(C(=O)OCCN4CCN(CC(=O)N5CCOCC5)CC4)cc3)c2c1 [Test Compound 7, 4-{[2-[4-(Morpholinocarbonylmethyl)piperazino]ethyl]oxycarbonyl}phenyl 5-methoxy-2-methylindole-3-acetate] |
| 0.6 µM | 80 µM | 100 µM | COc1ccc2[nH]c(C)c(CC(=O)Oc3ccc(C(=O)NCCN4CCN(CC(=O)N5CCOCC5)CC4)cc3)c2c1 [Test Compound 11, 4-{[2-[4-(Morpholinocarbonylmethyl)piperazino]ethyl]carbamoyl}phenyl 5-methoxy-2-methylindole-3-acetate] |
| 0.5 µM | 80 µM | 60 µM | COc1ccc2[nH]c(C)c(CC(=O)Oc3ccc(C(=O)OCCN4CCN(CC(=O)N(C)C)CC4)cc3)c2c1 [Test Compound 6, 4-{[2-[4-(Dimethylaminocarbonylmethyl)piperazino]ethyl]oxycarbonyl}phenyl 5-methoxy-2-methylindole-3-acetate] |
| 0.1 µM | 50 µM | 100 µM | COc1ccc2[nH]c(C)c(CC(=O)Oc3ccc(C(=O)OCCN4CCN(CCN5CCOCC5)CC4)cc3)c2c1 [Test Compound 1, 4-{[2-[4-[2-(Morpholino)ethyl]piperazino]ethyl]oxycarbonyl}phenyl 5-methoxy-2-methylindole-3-acetate] |
